Experiments:
[1] = test system: H460 non-small cell lung cancer cell line; assay: WST colorimetric assay, viability and combination index in H460 cells; assay type: cell-based; details: 24, 48 and 72 hours
Procedure: Specifically, a total of 10^5 cells per well were seeded in a 6-well plate before treatment. […] After treatment, the cells were incubated with WST for 1 hour, and then the absorbance was measured at 450 nm using an ELISA reader (Molecular Devices, Palo Alto, CA, USA).
Fa indicates the inhibition rate.

[2] = test system: H460 tumor xenograft; assay: H460 tumor xenograft mouse model; assay type: in vivo, Balb/c nude mice; details: H460 xenograft mice
Procedure: The effect of the combined administration of the mixed extract of the present invention and docetaxel was investigated in an animal model. All procedures of animal experimentation, including maintenance and euthanasia, were approved by Kyung Hee University Institutional Animal Care and Use Committee (KHU-IACUC-KHSASP-21-211). Five-week-old male Balb/c nude mice were purchased from Nara Biotech (Seoul, Republic of Korea) and acclimated to a 12-h light/dark cycle at 22-23° C. and 40-60% humidity. The mice were divided into four groups: control (n=3), SH003 administration (n=4), DTX administration (n=4), and combined administration (n=5). In order to establish a tumor xenograft mouse model, H460 cell suspension (1×10^7 cells) in 100 μL PBS was subcutaneously inoculated into the right flank of the mice. Thereafter, 200 μL of SH003 (557.569 mg/kg) was administered orally three times a week, and 50 μL DTX (15.277 mg/kg) was administered intravenously via the tail vein once a week for 3 weeks. Saline and DMSO were used as vehicles. The body weight was measured three times a week, and tumor volume was analyzed daily. On day 21, the mice were sacrificed using carbon dioxide and cervical dislocation was performed. Tumor tissues were isolated after euthanasia. […]

[3] = test system: BT-20 tumor xenograft; assay: BT-20 tumor xenograft mouse model; assay type: in vivo, BALB/c nude mice; details: BT-20 xenograft mice
Procedure: The effect of the combined administration of the mixed extract of the present invention and docetaxel was investigated in an animal model. All animal studies were approved by Kyung Hee University-Institutional Animal Care & Use Committee (KHU-IACUC). Five-week-old female BALB/c nude mice were purchased from Nara Biotech (Seoul, Republic of Korea). The mice were allowed free access to food and water and were housed in appropriate isolation cages at room temperature (22-25° C.) under a 12-h light/12-h dark cycle in the absence of pathogens. In order to establish a tumor xenograft mouse model, BT-20 cell suspension (1×10^7 cells) in 100 μL PBS was subcutaneously inoculated into the right flank of the mice. The mice were divided into four groups: control group (n=3), SH003 (n=4), DTX (n=4), and SH003+DTX (n=5). When the tumor volume reached 100 mm^3, the drug was injected. DTX was administered intravenously via the tail vein once a week at 15.277 mg/kg, while DMSO was administered to the control or SH003 single-administration group. SH003 was administered orally at 557.569 mg/kg three times a week, while saline was administered to the control or DTX single-administration group. The body weight was measured three times a week, and tumor volume was analyzed daily for 17 days.
Subsequently, the mice were euthanized and the tumors were isolated. […]

[4] = test system: gastric cancer cell line AGS; assay: Cell survival rate and combination index in AGS cells; assay type: cell-based
[5] = test system: A549 non-small cell lung cancer cell line; assay: WST colorimetric assay, viability in A549 cells; assay type: cell-based; details: 24, 48 and 72 hours
Procedure: Specifically, a total of 10^5 cells per well were seeded in a 6-well plate before treatment. After 24 hours, the cells were treated with SH003 (100, 300, and 500 μg/mL), DTX (1, 10, 100, and 1000 nM), or a combination thereof for 24, 48, and 72 hours. […] After treatment, the cells were incubated with WST for 1 hour, and then the absorbance was measured at 450 nm using an ELISA reader (Molecular Devices, Palo Alto, CA, USA).

[6] = test system: BT-20 (TNBC, triple-negative breast cancer, non-invasive); assay: MTT assay, viability and combination index in BT-20 cells; assay type: cell-based; details: 24 hours, SH003 100, 300, 500 μg/mL, DTX 1, 10, 100, 1000 nM
Procedure: (§3) Thereafter, a 3-(4,5-Dimethylthiazol-2-yl)-2,5-diphenyltetrazolium bromide (MTT) reagent was treated in each cell, the cells were further incubated for 4 hours, and then a supernatant was removed and 100 μL of dimethyl sulfoxide (DMSO) was added. Finally, absorbance was measured at a wavelength of 590 nm and the absorbance value was compared with a control group which was not treated with any material.
Fa indicates the inhibition rate.

[7] = test system: A549 cells; assay: Annexin V/7-AAD apoptosis in A549 cells; assay type: cell-based; details: 24 hours
Procedure: (§1) In order to investigate the effect of increasing apoptosis by combined administration of the mixed extract of the present invention and docetaxel, Annexin V/7-AAD double staining was used for analysis.
(§2) Specifically, H460 and A549 cells were stained with Annexin V and then stained with 7-AAD in the dark for 15 minutes at room temperature, and then the stained cells were detected by FACSCalibur (BD Biosciences, San Jose, CA, USA), and the apoptotic cells were analyzed using CellQuest Pro version 5.2 (BD Biosciences, San Jose, CA, USA) software. The results are illustrated in FIG. 3.

[8] = test system: MDA-MB-231 (TNBC, highly metastatic); assay: MTT assay, viability and combination index in MDA-MB-231 cells; assay type: cell-based; details: 24 hours, SH003 100, 300, 500 μg/mL, DTX 1, 10, 100, 1000 nM
Procedure: as §3
Fa indicates the inhibition rate.

[9] = test system: H460 cells; assay: Annexin V/7-AAD apoptosis in H460 cells; assay type: cell-based; details: 24 hours
Procedure: as §1, §2

CC(=O)O[C@@]12CO[C@@H]1C[C@H](O)[C@@]1(C)C(=O)[C@H](O)C3=C(C)[C@@H](OC(=O)[C@H](O)[C@@H](NC(=O)OC(C)(C)C)c4ccccc4)C[C@@](O)([C@@H](OC(=O)c4ccccc4)[C@H]21)C3(C)C [DTX, Docetaxel]
H460 cell growth [1]: inhibited H460 cell growth in a dose-dependent manner | body weight [2]: did not have an effect | body weight [3]: did not have an effect | AGS cell survival rate [4]: decreased in a concentration-dependent manner | A549 cell growth [5]: inhibited A549 cell growth in a dose-dependent manner | viability of BT-20 cells [6]: decreased the viability | apoptosis compared to the control group (in words) [7]: did not significantly affect | viability of MDA-MB-231 cells [8]: decreased the viability | apoptosis compared to the control group (in words) [9]: did not significantly affect

From patent US20260048093A1, “COMBINATION THERAPY OF MIXED HERBAL EXTRACT AND DOCETAXEL FOR PREVENTING OR TREATING CANCER” (JAEIN R&P INC., priority 2022, published 2026)
